# Data as given in paper PMC10638401, “Mannich-type modifications of (−)-cannabidiol and (−)-cannabigerol leading to new, bioactive derivatives” (Scientific Reports, 2023).
# Read-outs that look alike come from different tables or passages of the source.
# Assays:
# [1] = system: Enterococcus faecalis 51299 VanB; test: MIC, broth micro dilution
# Method: (§5) According to CLSI guideline the Minimal Inhibitory Concentrations (MICs) of the prepared compounds were determined with the broth micro dilution method. After an overnight growth on 5% bovine blood agar plates at 35 °C bacterial strains were suspended in physiological saline in order to reach the density of 0.5 McFarland for inoculation. Stock solutions containing different concentrations of the substances were prepared in DMSO and H2O (1:1). These were twofold serially diluted from 256 to 0.5 mg/l in Mueller–Hinton broth, and 100 ml of each dilution was inoculated with 10 ml of each bacterial suspension.
# [2] = system: MRSA (Methicillin Resistant Staphylococcus aureus); test: MIC, broth micro dilution
# Method: as §5
# [3] = system: Enterococcus faecalis 29 212; test: MIC, broth micro dilution
# Method: as §5
# [4] = system: Staphylococcus epidermidis mecA; test: MIC, broth micro dilution
# Method: as §5
# [5] = system: MSSA (Methicillin Sensitive Staphylococcus aureus); test: MIC, broth micro dilution
# [6] = system: SiHa cells; test: Antiproliferative MTT assay, 72 h; format: cell-based, human; conditions: for antiproliferative activity (in words): 10 and 30 μM
# From the text: (§1) Human adherent cancer cell lines A2780, MDA-MB-231 and MCF-7 were obtained from ECACC (European Collection of Cell Cultures, Salisbury, UK; Cat. No.93112519, 92020424, 86012803, respectively). SiHa cell line was obtained from ATCC (American Tissue Culture Collection, Manassas, Virginia, USA; Cat. No. HTB-35). All cell lines used for antiproliferative assay were maintained in Eagle's Minimum Essential Medium (EMEM) completed with 10% fetal bovine serum (FBS), 1% non-essential amino acid solution, and 1% penicillin, streptomycin, and amphotericin B mixture under cell culture conditions described before. All the utilized media and supplements were purchased from Lonza Group Ltd. (Basel, Switzerland).
# (§2) The antiproliferative actions of the prepared molecules were determined by the same assay against a panel of adherent human cancer cell lines containing cervical (SiHa), ovarian (A2780) and breast (MCF7, MDA-MB-231) cell lines. Cells were plated onto 96-well microplates (5000 cells/well) and after an overnight incubation treated with two concentrations (10 or 30 μM) of the test substances for 72 h under cell culture conditions. Subsequently, MTT (5 mg/ml in phosphate buffer) was added to the wells, followed by incubation for 4 h. The supernatant was removed, the formazan crystals were then dissolved in 100 µl DMSO. Finally, absorbance values were determined by a microplate reader (BMG Labtech, Ortenberg, Germany) at 545 nm. Two independent measurements were performed with five parallel wells. Results were expressed as percentage of cell proliferation inhibition compared to non-treated control samples regarded as 0%.
# [7] = system: A2780 cells; test: Antiproliferative MTT assay, 72 h; format: cell-based, human; conditions: for antiproliferative activity (in words): A2780, 10 and 30 μM
# From the text: as §1, §2
# [8] = system: MDA-MB-231 cells; test: Antiproliferative MTT assay, 72 h; format: cell-based, human; conditions: for antiproliferative activity (in words): MDA-MB-231, 10 and 30 μM
# From the text: as §1, §2
# [9] = system: MCF7 cells; test: Antiproliferative MTT assay, 72 h; format: cell-based, human; conditions: for antiproliferative activity (in words): MCF7, 10 and 30 μM; for inhibition of the proliferation: MCF7, 30 μM
# From the text: as §1, §2
# [10] = system: Bacillus subtilis; test: MIC, broth micro dilution
# [11] = system: Staphylococcus epidermidis biofilm forming; test: MIC, broth micro dilution
# [12] = system: Enterococcus faecalis 15 376 VanA; test: MIC, broth micro dilution
# [13] = system: SARS-CoV-2; test: SARS-CoV-2 immunofluorescence assay (nucleoprotein expression) in Vero E6 cells; format: cell-based; conditions: Severe acute respiratory syndrome coronavirus 2, Vero C1008, 72 h, three days
# Method: (§3) CBD and CBG derivatives were further tested for their ability to inhibit SARS-CoV-2 replication in Vero E6 cells. Initially, the inhibition of virus-induced cytopathic effect was measured by addition of twofold serial dilutions of each derivative to the cells, followed by the infection with SARS-CoV-2 and determination of the cell viability 3 days post-infection by XTT assay. Concurrently, the cytotoxicity of each compound was assessed from identical dilutions in uninfected Vero E6 cells. To confirm anti-SARS-CoV-2 activity in the CPE inhibition assay, selected compounds were tested in immunofluorescence assay, where inhibition of SARS-CoV-2 replication was monitored as reduction in nucleoprotein expression using fluorescence microscope. […] Among the CBG derivatives, we can find quite cytotoxic and non-cytotoxic derivatives as well.
# (§4) For CPE-based assay, two-fold fold serial dilutions of compounds from 100 µM were added in triplicate in a 384-well plate with 5000 Vero E6 cells in DMEM medium with 2% FBS, 100 U of penicillin/ml and 100 µg of streptomycin/ml (all Merck). After 1 h incubation SARS-CoV-2 (strain hCoV-19/Czech Republic/NRL_6632_2/2020) was added at multiplicity of infection […]. Following three days incubation at 37 °C in 5% CO2 the cell viability was determined by addition of XTT solution (Sigma-Aldrich) for 4 h and the absorbance was measured using EnVision plate reader (Perkin Elmer). Drug concentrations required to reduce viral cytopathic effect by 50% (EC50) were calculated using nonlinear regression from plots of percentage cell viability versus log10 drug concentration using GraphPad Prism (version 9.0.0, GraphPad Software, LLC). For immunofluorescence assay, two-fold fold serial dilutions of compounds from 100 µM were added in triplicate in 96-well plate with 15,000 Vero E6 cells plated day before in the same medium as above. After 1 h incubation, SARS-CoV-2 was added at multiplicity of infection 0.05 IU/cell. After three days of incubation, cells were fixed with 4% paraformaldehyde, permeabilized with 0.2% Triton X100 (both Merck), washed, incubated with anti-SARS-CoV-2antibody (mouse monoclonal antibody detecting SARS-CoV-2 nucleoprotein) for 2 h at room temperature. Followed by 1.5 h incubation with Cy3-labeled donkey anti-mouse IgG (Jackson ImmunoResearch Europe) and documented using fluorescence microscope with camera (Olympus). Images were processed in ImageJ software (NIH) and compound concentrations required to reduce fluorescence by 50% (EC50s) were calculated from plots of percentage of fluorescent cells versus log10 drug concentration using nonlinear regression analysis as above. Cytotoxicity was evaluated by incubating with the same two-fold serial dilutions of each compound as above with Vero E6 cells in 384-well plate.
# [14] = in vitro; conditions: African green monkey
# [15] = system: SARS-CoV-2; test: SARS-CoV-2 cytopathic effect (CPE) inhibition assay in Vero E6 cells (XTT); format: cell-based; conditions: for EC50: Severe acute respiratory syndrome coronavirus 2, Vero C1008, 72 h, Vero E6 cells, 3 days post-infection, XTT; for IC50: Severe acute respiratory syndrome coronavirus 2, Vero C1008, read-out: IC50 (anti-SARS-CoV-2 activity, Figure 8)
# Method: as §3, §4
# [16] = Enterococcus faecalis, 51299VANB
# [17] = Enterococcus faecalis, 15376VANA
SMILES,antiproliferative activity (in words) [6],antiproliferative activity (in words) [7],antiproliferative activity (in words) [8],antiproliferative activity (in words) [9],MIC [10],"MIC [1, 16]",MIC ([2]; Staphylococcus aureus),EC50 [13],CC50 [14],"MIC ([3]; Enterococcus faecalis, 29212)",MIC ([4]; Staphylococcus epidermidis),MIC ([5]; Staphylococcus aureus),MIC ([11]; Staphylococcus epidermidis),EC50 [15],IC50 [15],"MIC [12, 17]",also measured
C=C(C)[C@@H]1CCC(C)=C[C@H]1c1c(O)cc(CCCCC)c2c1OCN(CCCC)C2.Cl [Compound 8s],no significant difference was detected,no significant difference was detected,no significant difference was detected,no significant difference was detected,128 µg/mL,–,–,–,–,–,–,–,–,–,–,–,MIC ([1]; Enterococcus faecalis 51299 VanB): 2 µg/mL; MIC [2]: 128 µg/mL; MIC ([3]; Enterococcus faecalis 29 212): 2 µg/mL; MIC ([4]; Staphylococcus epidermidis mecA): 128 µg/mL; MIC [5]: 128 µg/mL; MIC ([11]; Staphylococcus epidermidis biofilm forming): 128 µg/mL; MIC ([12]; Enterococcus faecalis 15 376 VanA): 128 µg/mL
C=C(C)[C@@H]1CCC(C)=C[C@H]1c1c(O)cc(CCCCC)c2c1OCN(Cc1ccccc1)C2 [Compound 10],–,–,–,–,> 256 µg/mL,> 256 µg/mL,> 256 µg/mL,~42 µM,> 100 µM,> 256 µg/mL,> 256 µg/mL,> 256 µg/mL,> 256 µg/mL,9 ± 0.51 µM,9 µM,> 256 µg/mL,inhibition of the proliferation [9]: considerable growth inhibition
C=C(C)[C@@H]1CCC(C)=C[C@H]1c1c(O)cc(CCCCC)c2c1OCN(CCCC(=O)O)C2 [Compound 12],"None of the other tested CBD analogs (9, 11, and 12) exhibited substantial antiproliferative activity","None of the other tested CBD analogs (9, 11, and 12) exhibited substantial antiproliferative activity","None of the other tested CBD analogs (9, 11, and 12) exhibited substantial antiproliferative activity","None of the other tested CBD analogs (9, 11, and 12) exhibited substantial antiproliferative activity",> 256 µg/mL,> 256 µg/mL,> 256 µg/mL,39 ± 1.4 µM,~56 µM,> 256 µg/mL,> 256 µg/mL,> 256 µg/mL,> 256 µg/mL,11 ± 1.2 µM,11 µM,> 256 µg/mL,–
C=C(C)[C@@H]1CCC(C)=C[C@H]1c1c(O)c(CN(CC)CC)c(CCCCC)c(CN(CC)CC)c1O [Compound 13],–,–,–,–,> 256 µg/mL,> 256 µg/mL,> 256 µg/mL,–,12 ± 0.28 µM,> 256 µg/mL,> 256 µg/mL,> 256 µg/mL,> 256 µg/mL,> 12 µM,> 12 µM,> 256 µg/mL,"inhibition of the proliferation (in words) ([6]; 10 μM): no relevant action; inhibition of the proliferation ([6]; 30 μM): similarly effective than CBD; inhibition of the proliferation (in words) ([7]; A2780, 10 μM): no relevant action; inhibition of the proliferation ([7]; A2780, 30 μM): similarly effective than CBD; inhibition of the proliferation (in words) ([8]; MDA-MB-231, 10 μM): no relevant action; inhibition of the proliferation ([8]; MDA-MB-231, 30 μM): similarly effective than CBD; inhibition of the proliferation (in words) ([9]; MCF7, 10 μM): no relevant action; inhibition of the proliferation [9]: similarly effective than CBD"
CCCCCc1cc(O)c(C/C=C(\C)CCC=C(C)C)c2c1CN(Cc1ccccc1)CO2 [Compound 17a],–,–,–,–,> 256 µg/mL,64 µg/mL,> 256 µg/mL,–,> 100 µM,64 µg/mL,> 256 µg/mL,> 256 µg/mL,> 256 µg/mL,> 100 µM,> 100 µM,> 256 µg/mL,–
CCCCCc1c2c(c(C/C=C(\C)CCC=C(C)C)c3c1CN(Cc1ccccc1)CO3)OCN(Cc1ccccc1)C2 [Compound 17b],ineffectiveness,ineffectiveness,ineffectiveness,ineffectiveness,–,–,–,–,–,–,–,–,–,–,–,–,–
C=CCN1COc2c(c(CCCCC)c3c(c2C/C=C(\C)CCC=C(C)C)OCN(CC=C)C3)C1 [Compound 19b],more active than CBG,more active than CBG,more active than CBG,more active than CBG,–,–,–,–,–,–,–,–,–,–,–,–,–
CCCCCc1cc(O)c(C/C=C(\C)CCC=C(C)C)c2c1CN(CCCC(=O)O)CO2 [Compound 20],–,–,–,–,> 256 µg/mL,128 µg/mL,> 256 µg/mL,–,> 100 µM,64 µg/mL,> 256 µg/mL,> 256 µg/mL,> 256 µg/mL,> 100 µM,> 100 µM,128 µg/mL,–
"CCC(CC)COC(=O)[C@H](C)N[P@](=O)(OC[C@H]1O[C@@](C#N)(c2ccc3c(N)ncnn23)[C@H](O)[C@@H]1O)Oc1ccccc1 [Remdesivir, reference compound]",–,–,–,–,–,–,–,1.2 ± 0.03 µM,> 100 µM,–,–,–,–,2.8 ± 0.18 µM,–,–,–
